From patent US20060235035A1, “Novel methoxybenzamibe compounds for use in mch receptor related disorders” (7TM Pharma A/S, priority 2002, published 2006)

Key:
[1] = target: T1, human MCH-1 receptor (Homo sapiens, UniProt Q99705); assay: Radioligand binding assay ([125I]-MCH competition, whole cells); conditions: competition with [125I]-MCH; COS-7 or CHO cells expressing human MCH-1 receptor
T1 construct: expressed in transfected cells; host or cells: transiently transfected COS-7 cells or stably transfected CHO cells (pcDNA3.1)
Method: Transfections and Tissue Culture—The cDNA encoding the human MCH-1 receptor was cloned from a human brain cDNA library and cloned into the eukaryotic expression vector pcDNA3.1 (Invitrogen). Assays were performed on transiently transfected COS-7 cells or stably transfected CHO (Chinese Hamster Ovary) cells, expressing the human MCH-1 receptor in pcDNA3.1. Stable MCH-1 receptor transfectants of CHO cells were obtained using 5 μg plasmid cDNA and a standard calcium phosphate transfection method (Johansen et al., 1990; Gether et al., 1992) with subsequent selection in 1 mg/ml G418 (Life Technology). Clones were screened by a MCH receptor radioligand binding assay (as described below). Stably transfected CHO cells were maintained in RPMI 1640 culture medium (Invitrogen), supplemented with 10% fetal calf serum (Invitrogen), 100 U/ml penicillin, 100 μg/ml streptomycin (Life Technology), and 500 μg/ml G418 (Life Technology). COS-7 cells were grown in Dulbecco's modified Eagle's medium (DMEM) 1885 (Invitrogen) supplemented with 10% fetal calf serum, 100 U/ml penicillin, 100 μg/ml streptomycin, and were transiently transfected by a standard calcium phosphate transfection method (Johansen et al., 1990; Gether et al., 1992) two days before assay.
Radioligand Binding Assay—Transiently transfected COS-7 cells or stably transfected CHO cells, expressing human MCH-1 receptor were seeded in multi-well culture plates one day before the assay. The number of cells per well was determined by the apparent expression efficiency of the cell line aiming at 5-10% binding of the added radioligand. Cells were assayed by competition binding for 3 hours at room temperature using […] [^125I]-MCH (Amersham Pharmacia Biotech) plus variable amounts of unlabeled ligand in 0.5 ml of a 25 mM Hepes buffer, pH 7.4, supplemented with 10 mM MgCl2, 5 mM MnCl2, 10 mM NaCl, 0.1% (w/v) bovine serum albumin (BSA), 100 μg/ml bacitracin. The assay was performed in duplicate. Nonspecific binding was determined as the binding in the presence of 1 μM MCH (Bachem). Binding data were analyzed and IC50 values determined by non-linear regression using the Prism software (GraphPad software, San Diego). Values of the dissociation and inhibition constants (Kd and Ki) were estimated from competition binding using the equations Kd=IC50−L and Ki=IC50/(1+L/Kd), respectively, where L is the concentration of radioligand.

[2] = target: T1, human MCH-1 receptor; assay: Phosphatidylinositol assay (IP3); format: cell-based; conditions: phosphatidylinositol turnover stimulated by 10 nM MCH; COS-7 or CHO cells expressing human MCH-1 receptor
Method: Transfections and Tissue Culture—The cDNA encoding the human MCH-1 receptor was cloned from a human brain cDNA library and cloned into the eukaryotic expression vector pcDNA3.1 (Invitrogen). Assays were performed on transiently transfected COS-7 cells or stably transfected CHO (Chinese Hamster Ovary) cells, expressing the human MCH-1 receptor in pcDNA3.1. […] Clones were screened by a MCH receptor radioligand binding assay (as described below).
Phosphatidylinositol assay—To assay phosphatidylinositol turnover, transiently transfected COS-7 cells or stably transfected CHO cells, expressing human MCH-1 receptor (2×10^5 cells/well) were incubated for 24 h with 5 μCi of [^3H]-myo-inositol (Amersham Pharmacia Biotech) in 0.5 ml inositol-free culture medium. Cells were washed twice in PI-buffer: 20 mM HEPES, pH 7.4, supplemented with 140 mM NaCl, 5 mM KCl, 1 mM MgSO4, 1 mM CaCl2, 10 mM glucose, 0.02% (w/v) bovine serum; and were incubated in 0.5 ml PI-buffer supplemented with 10 mM LiCl at 37° C. for 45 min. Phosphatidylinositol turnover was stimulated by submaximal concentrations of MCH, i.e. 10 nM in the presence of increasing amounts of ligand. The ligand was added 5 min. before adding the agonist (MCH). Cells were extracted with 10 mM ice-cold Formic acid, and the generated [^3H]-inositol phosphates were purified on Bio-Rad AG 1-X8 anion-exchange resin. Determinations were made in duplicate. PI data were analyzed and IC50 values determined by non-linear regression using the Prism software (GraphPad software, San Diego).

[3] = target: T2, hMCHreceptor (Homo sapiens, UniProt Q99705); assay: Scintillation Proximity Assay (SPA), [125I]-MCH binding to CHO-K1 membranes; conditions: CHO-K1 membranes expressing hMCH receptor
T2 construct: purchased Euroscreen ES-370-M; host or cells: CHO-K1 membranes
Method: Scintillation Proximity Assay (SPA)—Measurement of [^125I]-MCHbinding was performed in duplicates by incubating membranes and beads with tracer in the presences of various concentrations of test compounds (10^−8 to 10^−4 M) in DMSO (3 μl) at room temperature for two hours. Membranes and beads were pre-incubated for 20 min. The binding buffer contained 50 mM Tris (pH 7.4), 8 mM MgCl2, 12% glycerol, 0.1% (w/v) bovine serum albumin (BSA), and protease inhibitors (Complete protease inhibitor cocktail tablets, Roche). A final [^125I]-MCH(2000 Ci/mmol; Amersham Pharmacia Biotech) concentration of 75.000 cpm/well (33.8 nCi) was applied and PEI-treated WGA-coupled PVT SPA beads, type B from Amersham Pharmacia Biotech were used at a final concentration of 0.4 mg/well. Moreover, CHO-K1 membranes expressing the hMCHreceptor were purchased from Euroscreen (ES-370-M) and a final concentration of 2 μg/well were used. Binding data were analyzed and IC50 values determined by non-linear regression using the Prism software (GraphPad software, San Diego). Values of the inhibition constant (Ki) were estimated from competition binding using the equation Ki=IC50/([…]), where L and Kd are the concentration and affinity constant, respectively, of the radioligand.

T1 sequence (Q99705 whole entry): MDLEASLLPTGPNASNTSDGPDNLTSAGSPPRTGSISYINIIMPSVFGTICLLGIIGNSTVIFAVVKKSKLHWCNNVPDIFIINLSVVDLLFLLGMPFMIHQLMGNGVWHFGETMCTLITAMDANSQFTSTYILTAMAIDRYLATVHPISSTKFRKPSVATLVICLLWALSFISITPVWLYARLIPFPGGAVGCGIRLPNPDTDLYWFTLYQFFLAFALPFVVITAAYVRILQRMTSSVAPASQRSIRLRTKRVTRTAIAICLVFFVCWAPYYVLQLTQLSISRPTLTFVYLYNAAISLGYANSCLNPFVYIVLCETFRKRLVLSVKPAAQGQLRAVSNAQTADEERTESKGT
T2 sequence (Q99705 whole entry): as above

IC50 [1] [nM]	IC50 [2] [nM]	IC50 [3] [nM]	Structure (SMILES)
1480	–	–	COc1cc(NC(=O)c2ccc(-c3ccccc3)cc2)ccc1C(=O)NCCN(C)C [Ex 2, Biphenyl-4-carboxylic acid[4-(2-dimethylamino-ethylcarbamoyl)-3-methoxy-phenyl]-amide]
380	2300	–	COc1cc(NC(=O)Nc2ccc(Oc3ccccc3)cc2)ccc1C(=O)NCCN(C)C [Ex 8, N-(2-Dimethylamino-ethyl)-2-methoxy-4-[3-(4-phenoxy-phenyl)-ureido]-benzamide]
220	1800	–	COc1cc(NC(=O)Nc2ccc(Oc3ccccc3)cc2)ccc1C(=O)NC1CCN(Cc2ccccc2)CC1 [Ex 16, N-(1-Benzyl-piperidin-4-yl)-2-methoxy-4-[3-(4-phenoxy-phenyl)-ureido]-benzamide]
210	770	–	COc1cc(NC(=O)Nc2ccc(Oc3ccccc3)cc2)ccc1C(=O)NCCCN1CCOCC1 [Ex 23, 2-Methoxy-N-(3-morpholin-4-yl-propyl)-4-[3-(4-phenoxy-phenyl)-ureido]-benzamide]
48	290	–	CCN(CC)CCNC(=O)c1ccc(N(C)C(=O)Nc2ccc(Oc3ccccc3)cc2)cc1OC [Ex 33, N-(2-Diethylamino-ethyl)-2-methoxy-4-[1-methyl-3-(4-phenoxy-phenyl)-ureido]-benzamide]
70	290	–	CCN(CC)CCNC(=O)c1ccc(NC(=O)Nc2ccc(OC(F)(F)F)cc2)cc1 [Ex 47, N-(2-Diethylamino-ethyl)-4-[3-(4-trifluoromethoxy-phenyl)-ureido]-benzamide]
96	190	–	CCN(CC)CCNC(=O)c1ccc(NC(=O)Nc2ccc(OC(F)(F)F)cc2)cc1OC [Ex 48, N-(2-Diethylamino-ethyl)-2-methoxy-4-[3-(4-trifluoromethoxy-phenyl)-ureido]-benzamide]
–	220	27	COc1cc(NC(=O)Nc2ccc(C(F)(F)F)cc2)ccc1C(=O)NCCN1CCOCC1 [Ex 67, 2-Methoxy-N-(2-morpholin-4-yl-ethyl)-4-[3-(4-trifluoromethyl-phenyl)-ureido]-benzamide]
12	22	–	COc1cc(NC(=O)Nc2cccc(Nc3ccccc3)c2)ccc1C(=O)NCCCN1CCCCC1 [Ex 89, 2-Methoxy-4-[3-(3-phenylamino-phenyl)-ureido]-N-(3-piperidin-1-yl-propyl)-benzamide]
44	240	–	COc1cc(NC(=O)Nc2ccc(Oc3ccccc3)cc2)ccc1C(=O)NCCCN1CCCCC1 [Ex 95, 2-Methoxy-4-[3-(4-phenoxy-phenyl)-ureido]-N-(3-piperidin-1-yl-propyl)-benzamide]
74	–	–	COc1cc(NC(=O)Nc2cccc(Oc3ccccc3)c2)ccc1C(=O)NCCCN1CCOCC1 [Ex 121, 2-Methoxy-N-(3-morpholin-4-yl-propyl)-4-[3-(3-phenoxy-phenyl)-ureido]-benzamide]
69	670	–	CCCCN(CCCC)CCCNC(=O)c1ccc(N(C)C(=O)Nc2ccc(Oc3ccccc3)cc2)cc1OC [Ex 134, N-(3-Dibutylamino-propyl)-2-methoxy-4-[1-methyl-3-(4-phenoxy-phenyl)-ureido]-benzamide]
450	1600	–	COc1cc(NC(=O)Nc2ccc(Oc3ccc(F)cc3)cc2)ccc1C(=O)NCCCN1CCOCC1 [Ex 135, 4-{3-[4-(4-Fluoro-phenoxy)-phenyl]-ureido}-2-methoxy-N-(3-morpholin-4-yl-propyl)-benzamide]
4450	–	–	COc1cc(NC(=O)Nc2ccc(Oc3ccccn3)cc2)ccc1C(=O)NCCCN1CCOCC1 [Ex 136, 2-Methoxy-N-(3-morpholin-4-yl-propyl)-4-(3-[4-(pyridin-2-yloxy)-phenyl]-ureido)-benzamide]
300	–	–	COc1cc(NC(=O)Nc2ccc3c(c2)CCC3)ccc1C(=O)NC1CCN(Cc2ccccc2)CC1 [Ex 137, N-(1-Benzyl-piperidin-4-yl)-4-(3-indan-5-yl-ureido)-2-methoxy-benzamide]
1410	–	–	COc1cc(NC(=O)Nc2ccc(Nc3ccc(C(F)(F)F)cc3)cc2)ccc1C(=O)NCCCN1CCOCC1 [Ex 139, 2-Methoxy-N-(3-morpholin-4-yl-propyl)-4-{3-[4-(4-trifluoromethyl-phenylamino)-phenyl]-ureido}-benzamide]
1000	–	–	COc1cc(NC(=O)Nc2ccc(Oc3ccccc3)cc2)c(F)cc1C(=O)NCCCN1CCCCC1 [Ex 186, 5-Fluoro-2-methoxy-4-[3-(4-phenoxy-phenyl)-ureido]-N-(3-piperidin-1-yl-propyl)-benzamide]
